Laboratory results published in PubChem BioAssay (NCI).
Several values for one entry are separate records, joined by “and”; a condition that tells them apart may be missing. Equal values may be shown once.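 These data come from cells grown in 96-well plates and exposed to compound for 48 hours at five concentrations. GI50 is the concentration that inhibits growth by half. TGI: total growth inhibition.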

Key:
Assay in all cases: NCI anticancer screen, dose series, 48 h
[1] = tested on: ACHN renal
[2] = tested on: EKVX NSCLC
[3] = tested on: HS 578T breast
[4] = tested on: M14 melanoma
[5] = tested on: SF-268 CNS
[6] = tested on: SF-295 CNS
[7] = tested on: SK-MEL-28 melanoma
[8] = tested on: TK-10 renal
[9] = tested on: U251 CNS
[10] = tested on: UO-31 renal

SMILES	GI50 [1]	TGI [1] [µM]	GI50 [2]	TGI [2]	GI50 [3]	TGI [3]	GI50 [4]	TGI [4]	GI50 [5]	TGI [5]	GI50 [6]	TGI [6]	GI50 [7]	TGI [7]	GI50 [8]	TGI [8]	GI50 [9]	TGI [9]	GI50 [10]	TGI [10]
C=C(C)[C@@H]1CC[C@]2(COCCCN)CC[C@]3(C)[C@H](CC[C@@H]4[C@@](C)(CCCNCCCN)[C@H](C(=C)C)CC[C@]43C)[C@@H]12	1.75 µM	3.13	1.71 µM	3.21 µM	2.16 µM	5.54 µM	1.9 µM	3.62 µM	1.84 µM	3.72 µM	1.94 µM	3.83 µM	1.72 µM	3.14 µM	1.68 µM	3.15 µM	1.7 µM	3.19 µM	1.43 µM	2.77 µM
O=NNc1ccc2ccccc2n1		> 100		> 100 µM		> 100 µM		> 100 µM		> 100 µM		> 100 µM		> 100 µM		> 100 µM		> 100 µM		> 100 µM
CC(C)C(O)(C(C)C)C(C)C		> 100		> 100 µM		> 100 µM		> 100 µM		> 100 µM		> 100 µM		> 100 µM		> 100 µM		> 100 µM		> 100 µM
O=C(Oc1ccc[nH]c1=O)c1cc([N+](=O)[O-])cc([N+](=O)[O-])c1	93.3 µM	> 100	> 100 µM	> 100 µM	> 100 µM	> 100 µM	> 100 µM	> 100 µM	> 100 µM	> 100 µM	26.6 µM	> 100 µM	> 100 µM	> 100 µM	> 100 µM	> 100 µM	> 100 µM	> 100 µM	23.6 µM	> 100 µM
O=C(O)CCCc1ccc2ccc3ccccc3c2c1		> 100		> 100 µM		> 100 µM		> 100 µM		> 100 µM		> 100 µM		> 100 µM		> 100 µM		> 100 µM		> 100 µM
CNC(=O)OCc1nc(SSC(C)(C)C)n(C)c1COC(=O)NC		8.71		20.7 µM		7.9 µM		4.13 µM		16.7 µM		31.7 µM		4.67 µM		13 µM		25.6 µM		20.3 µM
O=C(NC(=O)c1c(F)cccc1F)Nc1cccc(Oc2ncc(Cl)cn2)c1		> 100		> 100 µM		> 92.1 µM		> 100 µM		77.3 µM		> 85 µM		> 100 µM		> 100 µM		> 83.6 µM		> 100 µM
Cc1cc(N(CC(C)Br)CC(C)Br)ccc1N=Nc1ccccc1C(=O)O (centres undefined)		13.5		21.8 µM		49.2 µM		20.1 µM		> 38.8 µM		6.33 µM		5.43 µM		24.4 µM		22 µM		37.5 µM
N[C@H](C(=O)O)[C@@H]1CC(Cl)=NO1	28.4 µM	> 1000	11.5 µM	303 µM	7.42 µM	> 1000 µM	38.9 µM	> 1000 µM	10.2 µM	> 848 µM	7.59 µM and 2.63 µM	> 908 µM	28.9 µM	> 1000 µM	34.5 µM	> 609 µM	9.73 µM	> 1000 µM	26.6 µM	772 µM
CCOc1cc(C(C)(C)C)ccc1C1=N[C@H](c2ccc(Cl)cc2)[C@H](c2ccc(Cl)cc2)N1C(=O)N1CCN(CC#Cc2cccc3c2CN([C@@H]2CCC(=O)NC2=O)C3=O)CC1	1.24 µM	12.4	3.98 µM	> 100 µM	0.346 µM	> 100 µM	1.46 µM	> 47.3 µM	1.2 µM	> 100 µM	2.53 µM	19.2 µM	3.29 µM	> 100 µM	2.41 µM	44 µM	5.47 µM	> 47 µM	0.236 µM	2 µM
O=C(/C=C/c1ccccc1)Nc1ncc(Cc2ccccc2Cl)s1	0.612 µM	> 100	0.571 µM	> 100 µM	0.302 µM	> 24.7 µM	0.236 µM	> 100 µM	1.8 µM	> 100 µM	0.282 µM	11.7 µM	1.5 µM	> 100 µM	> 100 µM	> 100 µM	0.397 µM	> 100 µM	0.614 µM	> 100 µM
COc1cc(C2c3cc4c(cc3OC(C)(N3CCCC3)C2C)OCO4)cc(OC)c1OC (centres undefined)		> 79.9		> 50.8 µM		0.721 µM		4.81 µM		> 92.9 µM		0.661 µM		> 100 µM		> 67.1 µM		23.3 µM		57 µM
CCN(CC)CCCC(CCl)Nc1ccnc2cc(Cl)ccc12 (centres undefined)	36 µM and 6.74 µM	> 100	30.4 µM and 29.1 µM	87.2 µM and > 100 µM	17.3 µM and 18.1 µM	42.5 µM and 44.3 µM	2.13 µM and 2.39 µM	4.38 µM and 4.92 µM	17.1 µM and 21.6 µM	49.8 µM and 97 µM	13.1 µM and 12.6 µM	26.3 µM and 28.6 µM	18.8 µM and 19 µM	54.7 µM and > 63 µM	10.1 µM and 14.1 µM	22.2 µM and 29.4 µM	23.4 µM and > 50 µM	69.7 µM and > 100 µM	16.6 µM and 21.5 µM	37 µM and > 100 µM
O=C1C(=O)c2ccccc2C(O)=C1C(C1=C(O)c2ccccc2C(=O)C1=O)c1ccc(Cl)cc1		17		32.1 µM		66.4 µM		23.7 µM		59.8 µM		13.8 µM		55.5 µM		28.2 µM		16.3 µM		24.5 µM
CC1(C)N=C(N)N=C(N)N1c1ccc(CCC(=O)Nc2ccc(S(=O)(=O)F)cc2)c(Cl)c1	5.37 µM	> 100	2.78 µM	> 100 µM	> 84.7 µM	> 100 µM	0.762 µM	> 100 µM	0.507 µM	> 100 µM	1.09 µM	> 100 µM	22.8 µM	> 100 µM	0.604 µM	> 100 µM	0.498 µM	> 100 µM	63.6 µM	> 100 µM
COc1ccc2c(c1)OC1=C(C(=O)OC1)C2c1cc(OC)c2c(c1)OCCO2 (centres undefined)	0.122 µM	> 100	0.0682 µM	> 100 µM	0.0361 µM	> 100 µM	0.0566 µM	> 100 µM	0.156 µM	> 100 µM	0.0312 µM	> 100 µM	0.0517 µM	> 100 µM	1.54 µM	> 100 µM	0.0433 µM		0.071 µM	> 100 µM
